According to US8106007B2, “Conjugates of a polypeptide and a pentasaccharide” (N.V. Organon, priority 2005, dated 2012):
Where two headings read alike, the source gives them in different places. Blank lines part the entries; values can stand above or below the molecule they belong to. Where a SMILES comes first, the peptide text is derived from it. [ ]: non-standard residue; d: D form. The star is where a group is joined. X1 = CO[C@H]1O[C@H](COS(=O)(=O)O)[C@@H](O[C@@H]2O[C@@H](C(=O)O)[C@@H](O[C@H]3O[C@H](COS(=O)(=O)O)[C@@H](O[C@@H]4O[C@H](C(=O)O)[C@@H](O[C@H]5O[C@H](COS(=O)(=O)O)[C@@H](OCCOCCOCCOCCNC(=O)COCCOCCOCCOCCSC6CC(=O)N(CCCC(=O)*)C6=O)[C@H](OC)[C@H]5OC)[C@H](OC)[C@H]4OC)[C@H](OS(=O)(=O)O)[C@H]3OS(=O)(=O)O)[C@H](OC)[C@H]2OC)[C@H](OS(=O)(=O)O)[C@H]1OS(=O)(=O)O; d(hArg(Et2)) = CCN=C(NCC)NCCCC[C@@H](N)C(=O)O; hArg(Et2) = CCN=C(NCC)NCCCC[C@H](N)C(=O)O; dPhe(4-Cl) = N[C@H](Cc1ccc(Cl)cc1)C(=O)O; d2Nal = N[C@H](Cc1ccc2ccccc2c1)C(=O)O; d3Pal = N[C@H](Cc1cccnc1)C(=O)O

Key:
hATIII = hATIII (Homo sapiens, UniProt P01008); experiment: Competitive hATIII binding assay using Biomolecular Interaction Analysis (BIA); details: for competitive binding potential to ATIII (in words): compared to parent pentasaccharide-spacer residue / parent peptide; for IC50: 15 nmol/L hATIII, compound 9 immobilised on chip, 25° C., read-out: IC50 BIA (competitive ATIII binding)
Sequence of hATIII (P01008 33-464): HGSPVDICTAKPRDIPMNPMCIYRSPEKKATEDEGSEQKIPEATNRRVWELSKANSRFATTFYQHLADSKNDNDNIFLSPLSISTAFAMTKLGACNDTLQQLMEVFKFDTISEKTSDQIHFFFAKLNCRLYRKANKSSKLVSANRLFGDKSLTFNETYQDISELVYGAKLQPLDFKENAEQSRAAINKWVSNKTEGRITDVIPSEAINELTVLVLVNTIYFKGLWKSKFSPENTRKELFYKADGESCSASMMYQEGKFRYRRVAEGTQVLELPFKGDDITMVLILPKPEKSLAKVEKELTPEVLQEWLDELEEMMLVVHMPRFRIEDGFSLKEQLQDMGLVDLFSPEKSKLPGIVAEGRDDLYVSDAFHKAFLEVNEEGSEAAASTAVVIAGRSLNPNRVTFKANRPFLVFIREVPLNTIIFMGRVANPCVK
Protocol: The sensorgrams and report points were analysed with blanc flow cell subtraction using BIAevaluation 3.2. IC50 values were calculated using graphpad Prism 3.0.
Principle and aim of the test: Biomolecular Interaction Analysis (BIA) studies the interaction between (bio)molecules by covalent immobilisation of one of the interactants to a sensor chip surface, and injection of the other interactant in the continuous buffer flow over this surface. Binding is registered as a change in refractive index on this surface and is proportional to the molecular weight (Mw) of the interactants.
To study the interaction between hATIII and pentasaccharide conjugates, compound 9 is covalently coupled to the sensor chip surface. Binding of hATIII to the pentasaccharide generates a strong signal as a resultant of the difference in Mw between the bound (small) pentasaccharide ligand and the (large) hATIII analyte. Preincubated samples containing a constant concentration of hATIII and variable concentrations of free pentasaccharide or conjugate were injected over the surface. Binding of pentasaccharide or conjugate to ATIII during preincubation will result in a reduction of ATIII binding to the immobilised pentasaccharide. This competitive binding assay allows determination of IC50 values for each pentasaccharide conjugate.
Experimental procedure: Compound 9 is covalently coupled to a CM5 sensor chip by amine coupling at pH 8.5. […] The unreacted hydroxysuccinimide groups are reacted with ethanolamine for 7 min. The surface is regenerated by three short injections of 5 μL 5 mol/L NaCl, at a flow rate of 25 μL/min.
A concentration series of hATIII was tested to estimate a sensitive concentration for inhibition (at 80% of maximum binding). At a flow rate of 20 μL/min three minute injections were carried out at both blanc and immobilised surface in series at 25° C. A report point is generated at 170 s. The surface is regenerated by a 12 s injection of 5 mol/L NaCl.
The hATIII injection or report point without pentasaccharide conjugate is set at 100% binding. The relative % binding of the pentasaccharides and the conjugates compared to maximum binding was used to generate a sigmoidal curve (with variable slope) by plotting Log [concentration] vs. % binding from which the IC50 values were derived.

[1] = Pharmacokinetics in rat after 125I labeling, not corrected for dehalogenation
Protocol: (§1) After labeling, the conjugate was purified by gel filtration on Sephadex G25 and anion exchanger HiTrap Q10. […] In order to prevent accumulation of ^125I^− in the thyroid, rats were orally treated with 10 mg/kg potassium iodide prior to administration of compound.
The correct determination of the fate of ^125I-labeled conjugates might be affected aversely by metabolic intracellular endogenous dehalogenation to give free ^125I^− in circulation.

[2] = in rat, i.v., Chan et al. 1991; cited from earlier work
[3] = species not given; cited from earlier work
glucose levels = experiment: Glucose suppression test in vivo in rats; parameters: species or system rat; details: i.v. doses of 24 and 48 nmol/kg (FIG. 21, 22)
Protocol: The animals were fasted overnight (16 hours) prior to the experiment. In the morning blood was sampled from all the rats by cutting a little piece of the tail, after which the blood was dropped on a test strip and the glucose levels were measured with an ACCU-Check Sensor blood glucose monitor (Roche Diagnostics). […] At various time intervals blood samples were taken by removing the crusted blood, after which the glucose content was determined immediately as described.

[4] = rat, in vivo, iv
Protocol: as §1

rat ATIII = molecular target: T1, rat ATIII (Rattus norvegicus, UniProt A0A8I5Y9G3); experiment: Determination of (poly)peptide-pentasaccharide-ATIII complex in rat plasma (sandwich ELISA); assay type: binding; details: plasma 1 min after i.v. 3.5 nmol/kg in rat
T1 construct: from tissue; host or cells: plasma of male Wistar rats
T1 sequence (A0A8I5Y9G3 35-465): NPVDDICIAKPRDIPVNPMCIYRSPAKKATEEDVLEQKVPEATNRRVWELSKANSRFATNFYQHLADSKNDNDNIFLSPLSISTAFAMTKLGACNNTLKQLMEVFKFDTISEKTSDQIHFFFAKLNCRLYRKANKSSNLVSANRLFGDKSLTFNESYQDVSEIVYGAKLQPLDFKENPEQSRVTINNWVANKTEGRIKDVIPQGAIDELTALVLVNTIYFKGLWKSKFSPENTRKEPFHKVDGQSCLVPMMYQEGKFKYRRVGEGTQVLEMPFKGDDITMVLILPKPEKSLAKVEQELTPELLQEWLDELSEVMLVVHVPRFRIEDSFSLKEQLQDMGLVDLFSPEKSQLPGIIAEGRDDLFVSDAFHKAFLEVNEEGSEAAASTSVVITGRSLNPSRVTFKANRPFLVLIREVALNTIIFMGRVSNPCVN

[5] = rat, in vivo, iv, 3.5 nmol/kg
Description: The human Enzyme-Linked Immuno-Sorbent Assay (ELISA) has been developed to measure human insulin in human and rat plasma or buffer system. In this way the ELISA could be used to determine the insulin concentration in plasma samples derived from pharmacokinetic experiments.
The assay is based on the immunochemical “sandwich” principle using two monoclonal antibodies, i.e. a solid phase bound, capture antibody and a detection antibody which is labeled with horseradish peroxidase (HRP).
The plate was washed to remove unbound enzyme-labeled antibody and subsequently the 3,3′,5,5′-tetramethylbenzidine/H2O2 substrate solution was added. The reaction was stopped with 0.5 M sulphuric acid and the microtiter plate was read spectrophotometrically at 450 nm. The intensity of colour is directly proportional to the concentration of insulin. Then for each plasma sample the mean concentration (mol/L) of insulin was determined.
The rats were anaesthetized by inhalation of a mixture of O2/N2O/isoflurane, after which the right jugular vein was cannulated. […] Blood was centrifuged after which the plasma was siphoned off and stored at −20° C. until use. The concentration of the tested compounds in the plasma samples were determined using the human ELISA against a calibration curve which was made of the stock solution of the tested compound itself. The concentration in the samples was expressed in nmol/L and the kinetic parameters were calculated with the noncompartment model of WinNonlin.

[6] = Table 6, rat, i.v., 125I label, not corrected for dehalogenation, n = 3

IC50 (hATIII): 0.058 µM
Molecule: COC1OC(COS(=O)(=O)O)C(OC2OC(C(=O)O)C(OC3OC(COS(=O)(=O)O)C(OC4OC(C(=O)O)C(OC5OC(COS(=O)(=O)O)C(OCCOCCOCCOCCN)C(OC)C5OC)C(OC)C4OC)C(OS(=O)(=O)O)C3OS(=O)(=O)O)C(OC)C2OC)C(OC)C1OS(=O)(=O)O (stereo not drawn) [Compound 8]

IC50 (hATIII): 0.0055 µM
Molecule: COC1OC(COS(=O)(=O)O)C(OC2OC(C(=O)O)C(OC3OC(COS(=O)(=O)O)C(OC4OC(C(=O)O)C(OC5OC(COS(=O)(=O)O)C(OCCOCCOCCOCCN)C(OC)C5OC)C(OC)C4OC)C(OS(=O)(=O)O)C3OS(=O)(=O)O)C(OC)C2OC)C(OS(=O)(=O)O)C1OS(=O)(=O)O (stereo not drawn) [Compound 9]

elimination half-life ([1]; rats, control, data not shown): 192 min
Molecule: [125IH] [^125I^−]

competitive binding potential to ATIII (in words) (hATIII): no competitive binding to ATIII
Molecule: CCN=C(NCC)NCCCC[C@H](NC(=O)[C@H](CC(C)C)NC(=O)[C@@H](CCCCNC(=NCC)NCC)NC(=O)[C@H](Cc1ccc(O)cc1)NC(=O)[C@H](CO)NC(=O)[C@@H](Cc1cccnc1)NC(=O)[C@@H](Cc1ccc(Cl)cc1)NC(=O)[C@@H](Cc1ccc2ccccc2c1)NC(C)=O)C(=O)N1CCC[C@H]1C(=O)N[C@H](C)C(N)=O [ganirelix] (Ac-[d2Nal][dPhe(4-Cl)][d3Pal]SY[d(hArg(Et2))]L[hArg(Et2)]P[dA]-NH2)
T½ [2]: 84 min
t ½ [3]: 720 min

binding to rat ATIII in circulation (complex detected) (rat ATIII): cannot form a complex with ATIII
Molecule: recH insulin: recombinant human insulin (batch SIHR017, from Diosynth)
AUCinf [4]: 481 h · cpm/0.1 mL
Cl [4]: 69.3 mL/min/kg
MRT [4]: 30 min
Vss [4]: 2.225 L/kg
Cl [5]: 13.3 ± 2 mL/min/kg
MRT [5]: 0.84 ± 6 min
T½ eli [5]: 1.98 ± 0.06 min
Vss [5]: 0.012 ± 0.002 L/kg

Further lines, the molecule ahead of its results:

Molecule: CC[C@H](C)[C@H](NC(=O)[C@H](CCC(N)=O)NC(=O)[C@H](Cc1c[nH]cn1)NC(=O)[C@H](C)N)C(=O)N[C@@H](Cc1ccc(O)cc1)C(=O)N[C@@H](CCC(N)=O)C(=O)N[C@@H](Cc1ccccc1)C(=O)N[C@H](C(=O)N[C@@H](CC(=O)O)C(=O)N[C@@H](CCCCN)C(=O)N[C@@H](CC(=O)O)C(=O)N[C@@H](CCCCN)C(=O)N[C@@H](CC(=O)O)C(=O)N[C@@H](CC(N)=O)C(=O)N[C@H](C(=O)N[C@@H](C)C(=O)N1CCC[C@H]1C(=O)N[C@@H](CCCNC(=N)N)C(=O)N[C@@H](CO)C(=O)N[C@@H](CCCCN)C(=O)N[C@H](C(=O)N[C@@H](CO)C(=O)N1CCC[C@H]1C(=O)N[C@@H](CCC(N)=O)C(=O)NCC(=O)N[C@@H](Cc1ccc(O)cc1)C(N)=O)[C@@H](C)CC)C(C)C)[C@@H](C)O [ADM(27-52)] (H-AHQIYQFTDKDKDNVAPRSKISPQGY-NH2; N-terminus and C-terminus assumed)
competitive binding potential to ATIII (in words) (hATIII): no significant competitive binding to ATIII
Cl ([1]; rat, in vivo, iv): 112 ± 9 mL/h
Vss ([1]; rat, in vivo, iv): 556 ± 48 ml/rat

Molecule: COC[C@H]1O[C@H](OC)[C@H](OS(=O)(=O)O)[C@@H](OC)[C@@H]1O[C@@H]1O[C@@H](C(=O)O)[C@@H](O[C@H]2O[C@H](COS(=O)(=O)O)[C@@H](O[C@@H]3O[C@H](C(=O)O)[C@@H](O[C@H]4O[C@H](COS(=O)(=O)O)[C@@H](OCCOCCOCCOCCN)[C@H](OC)[C@H]4OC)[C@H](OC)[C@H]3OC)[C@H](OS(=O)(=O)O)[C@H]2OS(=O)(=O)O)[C@H](OC)[C@H]1OC [Compound 7]
IC50 (hATIII): 0.096 µM

Molecule: CC[C@H](C)[C@H](NC(=O)[C@H](CCC(N)=O)NC(=O)[C@H](Cc1c[nH]cn1)NC(=O)[C@H](C)NC(=O)CCCN1C(=O)CC(SCCOCCOCCOCCOCC(=O)NCCOCCOCCOCCO[C@H]2[C@H](OC)[C@@H](OC)[C@@H](O[C@H]3[C@H](OC)[C@@H](OC)[C@H](O[C@H]4[C@H](OS(=O)(=O)O)[C@@H](OS(=O)(=O)O)[C@@H](O[C@H]5[C@H](OC)[C@@H](OC)[C@H](O[C@H]6[C@H](OS(=O)(=O)O)[C@@H](OS(=O)(=O)O)[C@@H](OC)O[C@@H]6COS(=O)(=O)O)O[C@H]5C(=O)O)O[C@@H]4COS(=O)(=O)O)O[C@@H]3C(=O)O)O[C@@H]2COS(=O)(=O)O)C1=O)C(=O)N[C@@H](Cc1ccc(O)cc1)C(=O)N[C@@H](CCC(N)=O)C(=O)N[C@@H](Cc1ccccc1)C(=O)N[C@H](C(=O)N[C@@H](CC(=O)O)C(=O)N[C@@H](CCCCN)C(=O)N[C@@H](CC(=O)O)C(=O)N[C@@H](CCCCN)C(=O)N[C@@H](CC(=O)O)C(=O)N[C@@H](CC(N)=O)C(=O)N[C@H](C(=O)N[C@@H](C)C(=O)N1CCC[C@H]1C(=O)N[C@@H](CCCNC(=N)N)C(=O)N[C@@H](CO)C(=O)N[C@@H](CCCCN)C(=O)N[C@H](C(=O)N[C@@H](CO)C(=O)N1CCC[C@H]1C(=O)N[C@@H](CCC(N)=O)C(=O)NCC(=O)N[C@@H](Cc1ccc(O)cc1)C(N)=O)[C@@H](C)CC)C(C)C)[C@@H](C)O (stereo partly drawn) [Compound 39] (X1-AHQIYQFTDKDKDNVAPRSKISPQGY-NH2)
Cl [1, 6]: 5.0 ± 0.1 mL/h
Vss [1, 6]: 80 ± 3.3 ml/rat

Molecule: C[C@@H](O)[C@@H]1NC(=O)[C@H](CCCCN)NC(=O)[C@@H](Cc2c[nH]c3ccccc23)NC(=O)[C@H](Cc2ccccc2)NC(=O)[C@@H](NC(=O)[C@H](N)Cc2ccccc2)CSSC[C@@H](C(=O)N[C@H](CO)[C@@H](C)O)NC1=O [octreotide]
t ½ [3]: 102 min

Molecule: calcitonin
t ½ [3]: 20 min

Molecule: insulin detemir
blood glucose lowering activity (comparative example) (glucose levels): less pronounced and less prolonged activity
